pIC50: −log10 of the molar value.
Target: T1, mouse NPY5-receptor (mNPY5) (Mus musculus, UniProt O70342)
T1 construct: The full-length cDNA encoding the mouse NPY5 (mNPY5) receptor was amplified from mouse brain cDNA; expressed in transfected cells; membrane preparation
T1 sequence (O70342 1-466): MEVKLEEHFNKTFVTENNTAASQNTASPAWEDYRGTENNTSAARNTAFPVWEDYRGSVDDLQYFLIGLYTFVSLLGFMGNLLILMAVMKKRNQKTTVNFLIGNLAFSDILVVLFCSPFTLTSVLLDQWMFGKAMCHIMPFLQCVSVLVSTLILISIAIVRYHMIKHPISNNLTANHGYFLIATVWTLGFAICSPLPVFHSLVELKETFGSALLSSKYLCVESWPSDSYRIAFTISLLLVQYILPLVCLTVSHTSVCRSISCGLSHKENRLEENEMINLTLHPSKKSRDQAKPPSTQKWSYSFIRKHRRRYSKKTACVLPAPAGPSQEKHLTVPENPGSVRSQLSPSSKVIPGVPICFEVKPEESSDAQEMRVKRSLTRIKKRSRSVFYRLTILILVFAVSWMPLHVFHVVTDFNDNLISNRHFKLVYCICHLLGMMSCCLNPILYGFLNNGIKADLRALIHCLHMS
Test: Radioligand competition binding
Settings: displacement of 100 pM [125I]labelled peptide YY, membranes of HEK293 cells expressing recombinant mNPY5, 1 h at 22° C.; read-out: NPY5-R (mouse) IC50
Description: The full-length cDNA encoding the mouse NPY5 (mNPY5) receptor was amplified from mouse brain cDNA using specific primers, designed based on the published sequence, and Pfu DNA-Polymerase (Stratagene). The amplification product was subcloned into the mammalian expression vector pcDNA3 using Eco RI and XhoI restriction sites. Positive clones were sequenced and one clone, encoding the published sequence was selected for generation of stable cell clones.
Human embryonic kidney 293 (HEK293) cells were transfected with 10 μg mNPY5 DNA using the lipofectamine reagent (Gibco BRL) according to the manufacturer's instruction. Two days after transfection, geneticin selection (1 mg/ml) was initiated and several stable clones were isolated. One clone was further used for pharmacological characterization.
Human embryonic kidney 293 cells (HEK293), expressing recombinant mouse NPY5-receptor (mNPY5) were broken by three freeze/thawing cycles in hypotonic Tris buffer (5 mM, pH 7.4, 1 mM MgCl2), homogenized and centrifuged at 72,000×g for 15 min. The pellet was washed twice with 75 mM Tris buffer, pH 7.4, containing 25 mM MgCl2 and 250 mM sucrose, 0.1 mM phenylmethylsulfonylfluoride and 0.1 mM 1,10-pheneanthrolin, resuspended in the same buffer and stored in aliquots at −80° C. Protein was determined according to the method of Lowry using bovine serum albumine (BSA) as a standard. […]

SMILES | pIC50
Cc1cc(N2CCCC2)c2ccc(OCC3CC3)cc2n1 [Example 5, 7-cyclopropylmethoxy-2-methyl-4-pyrrolidin-1-yl-quinoline] | 7.57
CCCCc1cc2c(N3CCCC3)ccnc2cc1O [Example 34, 6-butyl-4-pyrrolidin-1-yl-quinolin-7-ol] | 8.00
